Measurements: US9856216B2, “Compounds as TNIK, IKKε and TBK1 inhibitors and pharmaceutical composition comprising same” (GREEN CROSS CORPORATION, priority 2015, dated 2018)

biological target: T1, TNIK (Homo sapiens, UniProt Q9UKE5); assay: ADP-Glo Kinase Assay, inhibition activity on TNIK; assay type: biochemical; conditions: read-out: TNIK
T1 construct: purchased Promega V4158
Method: The inhibition activities on TNIK, IKKε and TBK1 were measured by a luminometer, TNIK/IKKε/TBK1 Kinase Enzyme System (Promega, Ca# V4158; Invitrogen, PR8031B, Promega, Ca# V3991) and ADP-Glo Kinase Assay using ADP-Glo™ Kinase Analysis Kit (Promega, Ca# V9101) and a kinase reaction buffer [40 mM Tris(pH 7.5), 20 mM MgCl2, 0.1 mg/mL BSA] in accordance with the manufacturer's protocol.

T1 sequence (Q9UKE5 1-367 limits assumed): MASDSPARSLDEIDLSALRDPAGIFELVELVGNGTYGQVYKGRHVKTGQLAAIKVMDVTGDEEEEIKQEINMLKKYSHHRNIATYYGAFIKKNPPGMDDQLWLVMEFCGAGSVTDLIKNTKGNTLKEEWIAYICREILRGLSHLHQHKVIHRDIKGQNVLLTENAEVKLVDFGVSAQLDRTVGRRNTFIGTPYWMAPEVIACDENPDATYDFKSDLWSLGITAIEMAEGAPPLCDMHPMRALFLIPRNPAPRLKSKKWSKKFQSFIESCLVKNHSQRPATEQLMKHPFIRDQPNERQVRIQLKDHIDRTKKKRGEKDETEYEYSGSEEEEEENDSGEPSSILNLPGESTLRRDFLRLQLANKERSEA

SMILES	IC50
Cc1cccc(Nc2ccc(NC(=O)c3ccc(NCCCN4CCCC4)cc3)c3c2CNC3=O)c1 [Example 451, N-(3-oxo-7-(m-tolylamino)isoindolin-4-yl)-4-((3-(pyrrolidin-1-yl)propyl)amino)benzamide]	0.48 µM
O=C(Nc1ccc(-c2ccccc2O)c2c1C(=O)NC2)c1ccc(NCCO)cc1 [Example 353, 4-((2-Hydroxyethyl)amino)-N-(7-(2-hydroxyphenyl)-3-oxoisoindolin-4-yl)benzamide]	0.37 µM
CCOc1ccc(-c2ccc(NC(=O)c3ccccc3)c3c2CNC3=O)cc1 [Example 181, N-(7-(4-ethoxyphenyl)-3-oxoisoindolin-4-yl)benzamide]	> 20 µM
O=C(Nc1ccccc1F)Nc1ccc(-c2ccccc2)c2c1C(=O)NC2 [Example 242, 1-(2-Fluorophenyl)-3-(3-oxo-7-phenylisoindolin-4-yl)urea]	2.3 µM
O=C(Nc1ccc(-c2ccccc2)c2c1C(=O)NC2)c1ccc(OCCN2CCOCC2)cc1 [Example 345, 4-(2-Morpholinoethoxy)-N-(3-oxo-7-phenylisoindolin-4-yl) benzamide]	1.14 µM
CN(C)CCNc1ccc(C(=O)Nc2ccc(-c3ccco3)c3c2C(=O)NC3)cc1 [Example 291, 4-((2-(Dimethylamino)ethyl)amino)-N-(7-(furan-2-yl)-3-oxoisoindolin-4-yl)benzamide]	0.54 µM
O=C(Nc1ccc(Nc2ccc(F)cc2)c2c1C(=O)NC2)c1ccccc1 [Example 414, N-(7-((4-fluorophenyl)amino)-3-oxoisoindolin-4-yl)benzamide]	0.55 µM
CC(=O)Nc1cccc(C(=O)Nc2ccc(-c3ccccc3)c3c2C(=O)NC3)c1 [Example 107, 3-Acetamido-N-(3-oxo-7-phenylisoindolin-4-yl)benzamide]	0.48 µM
COCCNc1ccc(C(=O)Nc2ccc(-c3cccs3)c3c2C(=O)NC3)cc1 [Example 372, 4-((2-Methoxyethyl)amino)-N-(3-oxo-7-(thiophen-2-yl)isoindolin-4-yl)benzamide]	1.36 µM
CC(C)(O)c1ccc(NC(=O)c2ccc(F)cc2)c2c1CNC2=O [Example 393, 4-Fluoro-N-(7-(2-hydroxypropan-2-yl)-3-oxoisoindolin-4-yl) benzamide]	2.57 µM
O=C(Nc1ccc(-c2ccc(CN3CCOCC3)s2)c2c1C(=O)NC2)c1ccccc1 [Example 197, N-(7-(5-(morpholinomethyl)thiophen-2-yl)-3-oxoisoindolin-4-yl)benzamide]	> 20 µM
COc1ccc(C(=O)Nc2ccc(Nc3ccccc3)c3c2C(=O)NC3)cc1 [Example 433, 4-Methoxy-N-(3-oxo-7-(phenylamino)isoindolin-4-yl) benzamide]	0.4 µM
COc1ccccc1Nc1ccc(NC(=O)c2ccc(NCCN3CCCCC3)cc2)c2c1CNC2=O [Example 477, N-(7-((2-methoxyphenyl)amino)-3-oxoisoindolin-4-yl)-4-((2-(piperidin-1-yl)ethyl)amino)benzamide]	0.42 µM
Nc1ccc(-c2ccc(Cl)cc2)c2c1C(=O)NC2 [Example 62, 7-Amino-4-(4-chlorophenyl)isoindolin-1-one]	> 20 µM
CSc1cccc(NC(=O)Nc2ccc(-c3ccccc3)c3c2C(=O)NC3)c1 [Example 241, 1-(3-(Methylthio)phenyl)-3-(3-oxo-7-phenylisoindolin-4-yl) urea]	2.7 µM
O=C(Nc1ccc(-c2ccc3ncccc3c2)c2c1C(=O)NC2)c1ccc(NCCN2CCCC2)cc1 [Example 385, N-(3-oxo-7-(quinolin-6-yl)isoindolin-4-yl)-4-((2-(pyrrolidin-1-yl)ethyl)amino)benzamide]	0.78 µM

Second part, the compound after the results:

IC50	SMILES
0.6 µM	O=C(Nc1ccc(-c2ccccc2)c2c1C(=O)NC2)c1cccnc1 [Example 213, N-(3-oxo-7-phenylisoindolin-4-yl)nicotinamide]
0.25 µM	COc1ccccc1-c1ccc(NC(=O)c2ccc(NCCCCO)cc2)c2c1CNC2=O [Example 356, 4-((4-Hydroxybutyl)amino)-N-(7-(2-methoxyphenyl)-3-oxoisoindolin-4-yl)benzamide]
> 20 µM	O=C(Nc1ccc(Nc2cc(C(F)(F)F)cc(C(F)(F)F)c2)c2c1C(=O)NC2)c1ccc(NCCN2CCCCC2)cc1 [Example 467, N-(7-((3,5-bis(trifluoromethyl)phenyl)amino)-3-oxoisoindolin-4-yl)-4-((2-(piperidin-1-yl)ethyl)amino)benzamide]
1.29 µM	O=C(Nc1ccc(O)c2c1C(=O)NC2)c1ccc(F)cc1 [Example 396, 4-Fluoro-N-(7-hydroxy-3-oxoisoindolin-4-yl)benzamide]
1.45 µM	O=C(Nc1ccc(-c2cccc3ncoc23)c2c1C(=O)NC2)c1ccc(F)cc1 [Example 193, N-(7-(benzo[d]oxazol-7-yl)-3-oxoisoindolin-4-yl)-4-fluorobenzamide]
0.66 µM	O=C(Nc1ccc(-c2ccco2)c2c1C(=O)NC2)c1ccc(NCCN2CCCC2)cc1 [Example 287, N-(7-(furan-2-yl)-3-oxoisoindolin-4-yl)-4-((2-(pyrrolidin-1-yl)ethyl)amino)benzamide]
> 20 µM	N#Cc1cccc(-c2ccc(NC(=O)c3ccccc3)c3c2CNC3=O)c1 [Example 147, N-(7-(3-cyanophenyl)-3-oxoisoindolin-4-yl)benzamide]
0.41 µM	COc1ccccc1-c1ccc(NC(=O)c2ccc(NCc3cccs3)cc2)c2c1CNC2=O [Example 334, N-(7-(2-methoxyphenyl)-3-oxoisoindolin-4-yl)-4-((thiophen-2-ylmethyl)amino)benzamide]
7.4 µM	CN(C)c1cccc(-c2ccc(NC(=O)c3ccccc3)c3c2CNC3=O)c1 [Example 148, N-(7-(3-(dimethylamino)phenyl)-3-oxoisoindolin-4-yl) benzamide]
3.8 µM	Cc1ccc(-c2ccc(NC(=O)c3ccccc3)c3c2CNC3=O)cc1C [Example 26, N-(7-(3,4-dimethylphenyl)-3-oxoisoindolin-4-yl)benzamide]
5.4 µM	CC(=O)Nc1ccc(C(=O)Nc2ccc(-c3ccccc3)c3c2C(=O)NCC3)cc1 [Example 397, 4-Acetamido-N-(1-oxo-5-phenyl-1,2,3,4-tetrahydroisoquinolin-8-yl)benzamide]
> 20 µM	O=C(Nc1ccc(-c2cccc(Cl)c2F)c2c1C(=O)NC2)c1ccccc1 [Example 50, N-(7-(3-chloro-2-fluorophenyl)-3-oxoisoindolin-4-yl)benzamide]
0.54 µM	O=C(Nc1ccc(-c2cccs2)c2c1C(=O)NC2)c1ccc(NCCN2CCOCC2)cc1 [Example 375, 4-((2-Morpholinoethyl)amino)-N-(3-oxo-7-(thiophen-2-yl)isoindolin-4-yl) benzamide]
8.18 µM	COc1cccc(-c2ccc(NC(=O)c3ccc(F)cc3)c3c2CCNC3=O)c1OC [Example 400, N-(5-(2,3-dimethoxyphenyl)-1-oxo-1,2,3,4-tetrahydroisoquinolin-8-yl)-4-fluorobenzamide]
0.13 µM	CN1CCN(CCNc2ccc(C(=O)Nc3ccc(-c4cccs4)c4c3C(=O)NC4)cc2)CC1 [Example 378, 4-((2-(4-Methylpiperazin-1-yl)ethyl)amino)-N-(3-oxo-7-(thiophen-2-yl)isoindolin-4-yl)benzamide]
0.23 µM	CN1CCN(CCNc2ccc(C(=O)Nc3ccc(-c4ccco4)c4c3C(=O)NC4)cc2)CC1 [Example 294, N-(7-(furan-2-yl)-3-oxoisoindolin-4-yl)-4-((2-(4-methylpiperazin-1-yl)ethyl)amino)benzamide]
